From ChEMBL document CHEMBL4477245, “Development of a Series of (1-Benzyl-3-(6-methoxypyrimidin-3-yl)-5-(trifluoromethoxy)-1H-indol-2-yl)methanols as Selective Protease Activated Receptor 4 (PAR4) Antagonists with in Vivo Utility and Activity Against γ-Thrombin” (J Med Chem, 2016)
Activity calls are given as the source filed them. No cut-off for these calls is given here.

Legend:
[1] = molecular target: T1, Proteinase-activated receptor 4 (Homo sapiens, UniProt Q96RI0); experiment: Antagonist activity against PAR4 activating peptide domain in human platelets assessed as inhibition of alpha2bbeta3 activation level by PAC1 binding assay
T1 sequence (Q96RI0 whole entry): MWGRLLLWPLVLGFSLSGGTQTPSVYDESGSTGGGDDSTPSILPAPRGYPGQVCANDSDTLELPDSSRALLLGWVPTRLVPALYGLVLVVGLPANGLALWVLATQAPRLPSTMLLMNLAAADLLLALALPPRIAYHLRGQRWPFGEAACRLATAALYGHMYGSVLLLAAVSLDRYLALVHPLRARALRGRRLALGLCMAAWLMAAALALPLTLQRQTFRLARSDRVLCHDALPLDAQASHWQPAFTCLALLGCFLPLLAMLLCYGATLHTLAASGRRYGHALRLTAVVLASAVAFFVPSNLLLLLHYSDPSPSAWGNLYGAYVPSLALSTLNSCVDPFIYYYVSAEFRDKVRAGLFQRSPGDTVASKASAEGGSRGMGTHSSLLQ

[2] = molecular target: T2, Proteinase-activated receptor 4 (Homo sapiens) (UniProt Q96RI0); experiment: Antagonist activity against PAR4 activating peptide domain in human platelets assessed as inhibition of alpha2bbeta3 activation level at 10 uM by PAC1 binding assay
T2 sequence (whole entry): T1 sequence (Q96RI0 whole entry)

[3] = molecular target: T3, Proteinase-activated receptor 1 (Homo sapiens, UniProt P25116); experiment: Inhibition of PAR1 (unknown origin)
T3 sequence (P25116 whole entry): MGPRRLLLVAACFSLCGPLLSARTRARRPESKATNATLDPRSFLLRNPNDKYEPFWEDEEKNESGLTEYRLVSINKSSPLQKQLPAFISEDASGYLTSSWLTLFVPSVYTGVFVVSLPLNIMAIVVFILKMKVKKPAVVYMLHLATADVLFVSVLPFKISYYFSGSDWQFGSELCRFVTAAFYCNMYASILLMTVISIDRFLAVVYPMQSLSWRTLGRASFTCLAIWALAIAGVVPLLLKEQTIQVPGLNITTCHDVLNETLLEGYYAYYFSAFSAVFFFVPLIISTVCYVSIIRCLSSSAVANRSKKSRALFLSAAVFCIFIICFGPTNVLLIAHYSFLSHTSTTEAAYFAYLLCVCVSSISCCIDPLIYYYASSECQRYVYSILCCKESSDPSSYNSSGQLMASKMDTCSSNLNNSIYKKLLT

[4] = molecular target: T2, Proteinase-activated receptor 4 (Homo sapiens); experiment: Antagonist activity at PAR4 TL domain in human platelets assessed as gamma-thrombin-induced PAC1 binding response at 10 uM preincubated for 20 mins followed by agonist addition for 20 mins by FITC based flow cytometric analysis
Cytochrome P450 2D6 = Cytochrome P450 2D6 (Homo sapiens, UniProt P10635); experiment: Inhibition of CYP2D6 in human liver microsomes incubated for 15 mins using dextromethorphan substrate in presence of NADPH by LC-MS/MS method
[5] = Unbound protein binding in rat plasma at 5 uM after 4 hrs by LC/MS/MS analysis
[6] = Volume of distribution in steady state in Sprague-Dawley rat at 0.2 mg/kg, iv through cassette dosing up to 6 hrs by LC-MS/MS method; settings: in vivo
[7] = molecular target: T1, Proteinase-activated receptor 4; experiment: Antagonist activity at PAR4 TL domain in human platelets assessed as gamma-thrombin-induced PAC1 binding response preincubated for 20 mins followed by agonist addition for 20 mins by FITC based flow cytometric analysis
Cytochrome P450 2C9 = Cytochrome P450 2C9 (Homo sapiens, UniProt P11712); experiment: Inhibition of CYP2C9 in human liver microsomes incubated for 15 mins using diclofenac substrate in presence of NADPH by LC-MS/MS method
[8] = molecular target: T2, Proteinase-activated receptor 4 (Homo sapiens); experiment: Mixed competitive/non-competitive inhibition of PAR4 activating peptide domain in human platelets assessed as inhibition of alpha2bbeta3 activation level by PAC1 binding assay based by Schild analysis
Cytochrome P450 1A2 = molecular target: T4, Cytochrome P450 1A2 (Homo sapiens, UniProt P05177); experiment: Inhibition of CYP1A2 in human liver microsomes incubated for 15 mins using phenacetin substrate in presence of NADPH by LC-MS/MS method
T4 sequence (P05177 whole entry): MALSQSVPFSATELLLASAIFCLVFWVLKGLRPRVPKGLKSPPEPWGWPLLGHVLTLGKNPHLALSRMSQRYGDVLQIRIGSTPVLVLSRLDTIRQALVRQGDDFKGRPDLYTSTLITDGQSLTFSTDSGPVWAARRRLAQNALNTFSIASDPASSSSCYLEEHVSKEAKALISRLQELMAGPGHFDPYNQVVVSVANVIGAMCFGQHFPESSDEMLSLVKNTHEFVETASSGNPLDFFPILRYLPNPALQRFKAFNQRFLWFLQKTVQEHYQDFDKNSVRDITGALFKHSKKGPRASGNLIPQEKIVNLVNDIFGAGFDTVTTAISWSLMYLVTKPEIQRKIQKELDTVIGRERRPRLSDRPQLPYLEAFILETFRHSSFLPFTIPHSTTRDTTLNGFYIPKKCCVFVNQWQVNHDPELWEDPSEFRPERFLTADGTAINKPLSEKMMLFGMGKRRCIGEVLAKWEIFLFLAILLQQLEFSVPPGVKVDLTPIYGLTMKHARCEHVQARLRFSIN

Cytochrome P450 3A4 = Cytochrome P450 3A4 (Homo sapiens, UniProt P08684); experiment: Inhibition of CYP3A4 in human liver microsomes incubated for 15 mins using midazolam substrate in presence of NADPH by LC-MS/MS method
[9] = Unbound protein binding in human plasma at 5 uM after 4 hrs by LC/MS/MS analysis
[10] = molecular target: T1, Proteinase-activated receptor 4; experiment: Antagonist activity against PAR4 activating peptide domain in human platelets assessed as inhibition of P-selectin activation
[11] = Half life in Sprague-Dawley rat at 0.2 mg/kg, iv through cassette dosing up to 6 hrs by LC-MS/MS method; settings: in vivo
[12] = Unbound protein binding in human plasma; format: ADME, cell-free
[13] = Unbound protein binding in rat plasma; format: ADME, cell-free

Sequence of Cytochrome P450 2D6 (P10635 whole entry): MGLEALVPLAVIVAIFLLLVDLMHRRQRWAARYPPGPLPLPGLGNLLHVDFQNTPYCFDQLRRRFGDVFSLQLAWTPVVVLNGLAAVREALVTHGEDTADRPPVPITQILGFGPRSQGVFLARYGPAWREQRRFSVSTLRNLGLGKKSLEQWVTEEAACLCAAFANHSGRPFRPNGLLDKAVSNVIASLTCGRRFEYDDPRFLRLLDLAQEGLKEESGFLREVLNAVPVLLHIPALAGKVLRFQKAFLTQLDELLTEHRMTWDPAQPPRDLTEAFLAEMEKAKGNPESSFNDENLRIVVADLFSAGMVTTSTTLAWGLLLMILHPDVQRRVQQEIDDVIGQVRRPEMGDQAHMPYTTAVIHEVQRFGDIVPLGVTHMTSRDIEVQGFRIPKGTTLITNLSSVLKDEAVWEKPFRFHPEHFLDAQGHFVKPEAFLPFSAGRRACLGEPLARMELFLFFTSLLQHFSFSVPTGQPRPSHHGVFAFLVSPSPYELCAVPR
Sequence of Cytochrome P450 3A4 (P08684 whole entry): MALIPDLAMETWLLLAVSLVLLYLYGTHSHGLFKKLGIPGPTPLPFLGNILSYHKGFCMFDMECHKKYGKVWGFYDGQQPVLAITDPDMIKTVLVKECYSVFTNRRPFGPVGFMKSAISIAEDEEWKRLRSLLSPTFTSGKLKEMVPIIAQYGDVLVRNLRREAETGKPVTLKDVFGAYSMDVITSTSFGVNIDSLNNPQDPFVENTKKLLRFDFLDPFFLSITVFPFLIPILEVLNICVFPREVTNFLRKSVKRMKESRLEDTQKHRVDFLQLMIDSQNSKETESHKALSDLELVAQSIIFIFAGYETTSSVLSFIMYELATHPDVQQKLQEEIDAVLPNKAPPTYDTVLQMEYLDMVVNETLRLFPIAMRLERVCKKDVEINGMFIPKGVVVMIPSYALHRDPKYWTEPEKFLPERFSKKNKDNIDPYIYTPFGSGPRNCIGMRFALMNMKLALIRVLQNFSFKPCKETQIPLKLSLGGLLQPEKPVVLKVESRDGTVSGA
Sequence of Cytochrome P450 2C9 (P11712 whole entry, the tested form may be a part): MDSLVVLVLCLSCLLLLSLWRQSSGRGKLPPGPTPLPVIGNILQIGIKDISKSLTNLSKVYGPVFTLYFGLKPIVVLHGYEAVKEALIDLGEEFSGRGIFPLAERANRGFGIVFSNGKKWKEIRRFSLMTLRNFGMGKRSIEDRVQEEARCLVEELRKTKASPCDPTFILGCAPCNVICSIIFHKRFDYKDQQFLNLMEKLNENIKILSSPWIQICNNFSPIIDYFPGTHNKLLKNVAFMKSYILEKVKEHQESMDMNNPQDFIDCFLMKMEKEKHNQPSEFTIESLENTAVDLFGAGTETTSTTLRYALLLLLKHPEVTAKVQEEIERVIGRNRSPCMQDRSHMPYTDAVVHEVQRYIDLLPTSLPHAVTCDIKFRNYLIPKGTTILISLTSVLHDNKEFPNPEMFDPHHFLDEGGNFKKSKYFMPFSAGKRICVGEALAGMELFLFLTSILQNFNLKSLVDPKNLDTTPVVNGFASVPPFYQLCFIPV

Row | Compound | IC50 [1] [µM] | %max [2] [%] | other results
1 | OCc1c(-c2cncnc2)c2cc(OC(F)(F)F)ccc2n1Cc1ccc(F)cc1F | > 10 | 96.1 | –
2 | COc1ccc(-c2c(CO)n(Cc3ccc(F)cc3F)c3ccc(OC(F)(F)F)cc23)cn1 | 5.11 | 19.7 | IC50 [3]: > 30 µM
3 | CCOC(=O)c1ccc(-c2nn(Cc3ccccc3)c3ccccc23)cc1 | – | – | PB [12]: Unstable; PB [13]: Unstable
4 | COc1ccc2c(-c3ccc(OC)nc3)c(CO)n(Cc3ccccc3Cl)c2c1 | 1.39 | 4.31 | –
5 | COc1ncc(-c2c(CO)n(Cc3ccc(F)cc3F)c3ccc(OC(F)(F)F)cc23)cn1 | – | 53.6 | –
6 | COc1ccc(-c2c(CO)n(Cc3cccc(Br)c3)c3ccc(OC(F)(F)F)cc23)cn1 | 2.19 | 27.1 | –
7 | COc1ccc(-c2c(CO)n(C)c3ccc(C(F)(F)F)cc23)cn1 | > 10 | 106 | –
8 | COc1ccc(-c2c(CO)n(Cc3cccc(C(F)(F)F)c3)c3ccc(OC(F)(F)F)cc23)cn1 | 4.82 | 19.7 | –
9 | CCOC(=O)c1ccc(-c2cn(Cc3ccccc3)c3ccccc23)cc1 | – | – | PB [12]: Unstable; PB [13]: Unstable
10 | COc1ccc2c(-c3cnc(SC)nc3)c(CO)n(Cc3ccccc3Cl)c2c1 | 4.15 | 21.3 | –
11 | COc1ccc(-c2c(CO)n(Cc3cccc(F)c3)c3ccc(OC(F)(F)F)cc23)cn1 | > 10 | 80.6 | –
12 | COc1ccc(-c2c(CO)n(Cc3ccccc3Cl)c3ccc(OC(F)(F)F)cc23)cn1 | – | – | inhibition [8]: Active
13 | CSc1ncc(-c2c(CO)n(Cc3ccc(F)cc3F)c3ccc(OC(F)(F)F)cc23)cn1 | 1.49 | 15.6 | –
14 | CCOc1ccc2c(-c3ccc(OC)nc3)c(CO)n(Cc3ccccc3Cl)c2c1 | 3.76 | 19.7 | –
15 | COc1cccc(Cn2c(CO)c(-c3ccc(OC)nc3)c3cc(C(F)(F)F)ccc32)c1 | > 10 | 108 | –

Further lines, with some results ahead:

Row | IC50 [1] [µM] | %max [2] [%] | Compound | other results
16 | 4.91 | 35.4 | CCOc1ncc(-c2c(CO)n(Cc3ccccc3Cl)c3ccc(OC(F)(F)F)cc23)cn1 | –
17 | 0.18 | 3.2 | COc1nn2cc(-c3c(CO)n(Cc4ccccc4Cl)c4ccc(OC(F)(F)F)cc34)nc2s1 | inhibition [4]: 39.4%; IC50 (Cytochrome P450 2D6): 1.2 µM; Fu [5]: 0.003; Vdss [6]: 21.1 L/kg; IC50 [7]: 4.35 µM; IC50 (Cytochrome P450 2C9): 11.2 µM; inhibition [8]: Active; IC50 (Cytochrome P450 1A2): > 30 µM; IC50 (Cytochrome P450 3A4): > 30 µM; IC50 [3]: > 30 µM; Fu [9]: 0.004; IC50 [10]: 0.132 µM; t1/2 [11]: 6.1 h
18 | 0.93 | 12.3 | COc1ccc(-c2c(CO)n(Cc3ccccc3Cl)c3cc(OC(F)(F)F)ccc23)cn1 | IC50 [3]: > 30 µM
19 | 0.21 | 5.57 | CSc1ncc(-c2c(CO)n(Cc3ccccc3Cl)c3cc(OC(F)(F)F)ccc23)cn1 | IC50 [3]: > 30 µM
20 | > 10 | 101 | OCc1c(-c2ccncc2)c2cc(OC(F)(F)F)ccc2n1Cc1ccccc1Cl | –
21 | > 10 | 53.4 | COc1ccc(-c2c(CO)n(Cc3ccccc3)c3ccc(OC(F)(F)F)cc23)cn1 | –
22 | > 10 | 89 | COc1ccc(-c2c(CO)n(Cc3ccccc3F)c3ccc(OC(F)(F)F)cc23)cn1 | –
23 | 1.5 | 7.95 | COc1ncc(-c2c(CO)n(Cc3ccccc3Cl)c3ccc(OC(F)(F)F)cc23)cn1 | –
24 | > 10 | 95.5 | COc1ccc(-c2c(CO)n(Cc3cccc(Cl)c3)c3ccc(OC(F)(F)F)cc23)cn1 | –
